Series [1] in a line: Pharmacokinetic study in atherosclerosis (AS) model ApoE−/− mice after oral administration of SMYAD. The class given is in vivo, mouse. As to the method: (§1) Male C57BL/6J mice and ApoE^−/− mice on a C57BL/6 background (7 weeks old, 18–22 g) were purchased from Beijing Vital River Laboratory Animal Technology Co., Ltd. (Beijing, China, Certificate No.: SCXK (Jing) 2016-0006). All the mice were kept in an SPF animal house (Dongzhimen Hospital Affiliated to Beijing University of Chinese Medicine, Certificate No.: SYXK (Jing) 2015-0001) with food and water freely available, 12 h light/dark, and environmental conditions of 22°C–24°C, 50% relative humidity. All protocols of animal experiments were performed in accordance with the National Guidelines for Laboratory Animal Welfare and were approved by the Animal Ethics Committee of Beijing University of Chinese Medicine (NO. BUCM-4-2015071701-3001). High-fat feeding (containing 15% fat and 0.25% cholesterol) was provided by Beijing HFK bioscience CO., LTD. (Beijing, China, Certificate No.: SCXK (Jing) 2014-0018).
The AS model was established by a high-fat diet and perivascular carotid collar placement (PCCP) surgery in the ApoE^−/− mice. After a 7-day adaptive feeding, the mice were given a high-fat diet for 2 weeks; before anesthesia, all ApoE^−/− mice were fasted for 12 hours. During the surgery, the right common carotid artery was exposed, and a silicone cannula (length: 2.5 mm, inner diameter: 0.3 mm) was fixed around the carotid artery (external diameter: about 0.5 mm). Penicillin was injected intraperitoneally for 3 days after surgery to prevent infection. High-fat diet continued for 8 weeks after surgery to establish AS model. Biochemical assays and hematoxylin and eosin (HE) staining were used to evaluate whether AS model was successfully established.
(§2) After successful induction of AS model, SMYAD was administered to NC and AS mice by intragastric gavage at the crude drug dose of 35 g/kg/d for seven days. Blood samples were collected from each mouse in heparinized tubes via the postorbital venous plexus veins at 0, 0.25, 0.5, 1, 2, 4, 6, 8, 10, 12, 18, and 24 h after seven days of drug administration. Then blood samples were immediately centrifuged at 3500 rpm at 4°C for 10 min and the plasma was stored at −80°C until use.
(§3) Each plasma sample (100 μL) was mixed with a threefold volume of methanol and 25 μL IS in a 1.5 mL EP tube. Then the mixture was vortexed for 100 seconds and centrifuged at 12,000 rpm for 10 min at 4°C. The supernatant was transferred to another EP tube and evaporated to dryness under a nitrogen vacuum. The residue was reconstituted with 100 μL of 50% methanol and centrifuged at 15,000 rpm for 15 min. Then the supernatant was transferred to sample vials for the LC-MS analysis.
(§4) A Vanquish UHPLC™ system (Thermo Fisher Scientific Inc., USA) was used for the analysis. Samples were separated on an Atlantis T3 column (4.6 mm × 150 mm, 3 μm; Waters, USA). The column temperature was 40°C. The mobile phase, at 0.4 mL/min, consisted of water containing 0.1% formic acid (v/v, A) and methanol (B). The quantitative analysis gradient program was as follows: 0-1 min, 0 B; 1–6 min, 0–100% B; 6–12 min, 100% B; 12–12.1 min, 100%-0 B; 12.1–15 min, 0 B. The injection volume was 5 μL.
The mass spectrometer Q Exactive HF-X (Thermo Fisher Scientific Inc., USA) system was connected to the UHPLC system via heated electrospray ionization (HESI) and controlled by Xcalibur 4.2 software (Thermo Fisher) that was used for data collection and analysis. The mass spectrometer was operated in a negative ionization mode. The MS parameters were set as follows: probe heater temperature, 350°C; capillary temperature: 320°C; sheath gas (N2) flow rate: 30 arbs; auxiliary gas (N2) flow rate: 10 arbs; spray voltage: 3.2 kV (negative); S-Lens RF level: 55 V; scan mode: full MS (resolution 12000); scan range: m/z 150–1500. The most abundant ions in the spectra were selected for sensitive quantitation ([M-H]^−of chlorogenic acid, angoroside C, liquiritin, isoliquiritigenin, and IS, [M + COOH]^− of harpagide, swertiamarin, and sweroside). […]

Series [2] in a line: Pharmacokinetic study in normal control (NC) mice after oral administration of SMYAD. The class given is in vivo, mouse. The settings on record: for AUC(0-t) / AUC(0-inf) / Cmax / half-life / Tmax: male, C57BL/6J. How it is done:
as §1, §2, §3, §4
The mass spectrometer Q Exactive HF-X (Thermo Fisher Scientific Inc., USA) system was connected to the UHPLC system via heated electrospray ionization (HESI) and controlled by Xcalibur 4.2 software (Thermo Fisher) that was used for data collection and analysis. The mass spectrometer was operated in a negative ionization mode. The MS parameters were set as follows: probe heater temperature, 350°C; capillary temperature: 320°C; sheath gas (N2) flow rate: 30 arbs; auxiliary gas (N2) flow rate: 10 arbs; spray voltage: 3.2 kV (negative); S-Lens RF level: 55 V; scan mode: full MS (resolution 12000); scan range: m/z 150–1500. The most abundant ions in the spectra were selected for sensitive quantitation ([M-H]^−of chlorogenic acid, angoroside C, liquiritin, isoliquiritigenin, and IS, [M + COOH]^− of harpagide, swertiamarin, and sweroside).
The pharmacokinetic parameters, including maximum plasma concentration (Cmax), time corresponding to Cmax (Tmax), terminal elimination half-life (T1/2), area under plasma concentration-time curve (AUC0–t) and area under the plasma concentration-time curve from 0 to infinity time (AUC0–∞), apparent volume of distribution (Vz/F) and clearance (CLz/F), were calculated using the noncompartment model in DAS 2.0 software package (Shanghai, China). GraphPad prism 6.02 (GraphPad Software, USA) was used in the statistical analysis. All values are expressed as mean ± standard error. For the pharmacokinetic parameter values of the NC and AS groups, Student's t-test was employed for data comparisons. P values <0.05 were considered statistically significant.

The mark [3] stands for this setting: AS mice, plasma, SMYAD intragastric 35 g/kg/d for seven days, mean ± SD, n = 5.
Setting [4] is: male, ApoE−/− on a C57BL/6 background, mouse, po, 35 g/kg/day, AS mice, plasma, SMYAD intragastric 35 g/kg/d for seven days, mean ± SD, n = 5, read-out: AUC0–t.
Where [5] appears, read: male, ApoE−/− on a C57BL/6 background, mouse, po, 35 g/kg/day, AS mice, plasma, SMYAD intragastric 35 g/kg/d for seven days, mean ± SD, n = 5, read-out: AUC0–∞.
Setting [6] is: male, ApoE−/− on a C57BL/6 background, mouse, po, 35 g/kg/day, AS mice, plasma, SMYAD intragastric 35 g/kg/d for seven days, mean ± SD, n = 5, read-out: C max.
[7] abbreviates: male, ApoE−/− on a C57BL/6 background, mouse, po, 35 g/kg/day, AS mice, plasma, SMYAD intragastric 35 g/kg/d for seven days, mean ± SD, n = 5, read-out: t 1/2 (converted).
Where [8] appears, read: male, ApoE−/− on a C57BL/6 background, mouse, po, 35 g/kg/day, AS mice, plasma, SMYAD intragastric 35 g/kg/d for seven days, mean ± SD, n = 5, read-out: t max.
Setting [9] is: NC mice, plasma, SMYAD intragastric 35 g/kg/d for seven days, mean ± SD, n = 5.
Where [10] appears, read: mouse, po, 35 g/kg/day, NC mice, plasma, SMYAD intragastric 35 g/kg/d for seven days, mean ± SD, n = 5, read-out: AUC0–t.
The mark [11] stands for this setting: mouse, po, 35 g/kg/day, NC mice, plasma, SMYAD intragastric 35 g/kg/d for seven days, mean ± SD, n = 5, read-out: AUC0–∞.
Setting [12] is: mouse, po, 35 g/kg/day, NC mice, plasma, SMYAD intragastric 35 g/kg/d for seven days, mean ± SD, n = 5, read-out: C max.
The mark [13] stands for this setting: mouse, po, 35 g/kg/day, NC mice, plasma, SMYAD intragastric 35 g/kg/d for seven days, mean ± SD, n = 5, read-out: t 1/2 (converted).
Setting [14] is: mouse, po, 35 g/kg/day, NC mice, plasma, SMYAD intragastric 35 g/kg/d for seven days, mean ± SD, n = 5, read-out: t max.
[15] abbreviates: male, ApoE−/− on a C57BL/6 background, mouse, in vivo, po, 35 g/kg/day.
Setting [16] is: mouse, in vivo, po, 35 g/kg/day.

As for `O=C(/C=C/c1ccc(O)c(O)c1)O[C@@H]1C[C@](O)(C(=O)O)C[C@@H](O)[C@H]1O` [Chlorogenic acid, chlorogenic acid], the CLz/F in series [1] (setting [3]) is 13.49 ± 1.81^∗∗ L/h/mg; in series [1] (AS mice, plasma, SMYAD intragastric 35 g/kg/d for seven days, mean ± SD, n = 5, listed as chlorogenic acid) it was 13.49 ± 1.81 L/h/mg; in series [2] (setting [9]), 506200 ± 126000 µL/min/mg. In addition, the Vz/F was determined as 302.49 ± 211.89 L/mg in series [1] (setting [3]) and 247.01 ± 150.71 L/mg in series [2] (setting [9]). The AUC(0-t) in series [1] (setting [4]) was 1.56 ± 0.476 µg·h/mL; in series [2] (setting [10]) it was 1.11 ± 0.419 µg·h/mL. The figures for the AUC(0-inf) in series [1] (setting [5]) and in series [2] (setting [11]) were 2.64 ± 0.323 µg·h/mL and 1.26 ± 0.425 µg·h/mL, respectively. Also, the figures for the Cmax in series [1] (setting [6]) and in series [2] (setting [12]) were 1.13 ± 0.97 µg/mL and 0.267 ± 0.0724 µg/mL, respectively. Moreover, the half-life is 21.6 ± 9.16 h in series [1] (setting [7]) and 4.51 ± 1.1 h in series [2] (setting [13]). In addition, the Tmax in series [1] (setting [8]) turned out to be 0.25 h; in series [2] (setting [14]), 1.13 ± 0.88 h.
Consider `O=C(/C=C/c1ccc(O)cc1)c1ccc(O)cc1O` [Isoliquiritigenin, isoliquiritigenin], for which the CLz/F in series [1] (setting [3]) was 62.16 ± 23.35^∗ L/h/mg; in series [1] (AS mice, plasma, SMYAD intragastric 35 g/kg/d for seven days, mean ± SD, n = 5, listed as isoliquiritigenin), 62.16 ± 23.35 L/h/mg; in series [2] (setting [9]) it was 558500 ± 73500 µL/min/mg. Besides, the Vz/F in series [1] (setting [3]) came to 658.87 ± 555.51 L/mg; in series [2] (setting [9]) it was 198.37 ± 58.53 L/mg. Further, the AUC(0-t) amounted to 0.502 ± 0.166 µg·h/mL in series [1] (setting [4]) and 1.04 ± 0.144 µg·h/mL in series [2] (setting [10]). Besides, the results for the AUC(0-inf) in series [1] (setting [5]) and in series [2] (setting [11]) were 0.654 ± 0.251 µg·h/mL and 1.06 ± 0.144 µg·h/mL, respectively. Besides, the Cmax in series [1] (setting [6]) is 0.135 ± 0.102 µg/mL; in series [2] (setting [12]) it was 0.175 ± 0.049 µg/mL. Besides, the half-life in series [1] (setting [7]) is 6.01 ± 2.32 h; in series [2] (setting [13]) it was 6.65 ± 1.31 h. Moreover, the values for the Tmax in series [1] (setting [8]) and in series [2] (setting [14]) were 0.95 ± 0.6 h and 1.9 ± 2.13 h, respectively.
Take `O=C1C[C@@H](c2ccc(O[C@@H]3O[C@H](CO)[C@@H](O)[C@H](O)[C@H]3O)cc2)Oc2cc(O)ccc21` [Liquiritin, liquiritin]: the CLz/F in series [1] (male, ApoE−/− on a C57BL/6 background, mouse, in vivo) worked out at 67.62 ± 33.62 L/h/mg. In series [1] (setting [15]), the AUC(0-inf) was 0.482 ± 0.137 µg·h/mL, the AUC(0-t) came out at 0.408 ± 0.115 µg·h/mL, the Cmax amounted to 0.0676 ± 0.0336 µg/mL and the Tmax is 0.75 ± 0.69 h. The compound further gave a half-life in series [1] (setting [15]) of 13.5 ± 3.57 h. The same compound displayed a Vz/F in series [1] (setting [16]) of 887.57 ± 397.82 L/mg. In series [2] (setting [16]), the AUC(0-inf) worked out at 0.76 ± 0.334 µg·h/mL, the AUC(0-t) was found to be 0.607 ± 0.229 µg·h/mL, the Cmax was determined as 0.132 ± 0.0571 µg/mL and the Tmax worked out at 0.75 ± 0.63 h. In series [2] (setting [16]), the half-life was 17 ± 3.43 h, the CLz/F worked out at 979000 ± 515700 µL/min/mg and the Vz/F is on record as 565.81 ± 116.60 L/mg.
On to `C=C[C@H]1[C@H](O[C@@H]2O[C@H](CO)[C@@H](O)[C@H](O)[C@H]2O)OC=C2C(=O)OCC[C@H]21` [Sweroside, sweroside], for which, in series [1] (setting [15]), the AUC(0-inf) turned out to be 8.93 ± 2.12 µg·h/mL, the AUC(0-t) was determined as 7.5 ± 1.8 µg·h/mL, the Cmax came to 1.59 ± 0.497 µg/mL and the Tmax is 0.9 ± 0.64 h. The half-life in series [1] (setting [15]) was 6.56 ± 2.75 h. For the same compound, in series [1] (setting [16]), the CLz/F worked out at 4.29 ± 1.55 L/h/mg and the Vz/F is 29.99 ± 14.26 L/mg. Moreover, in series [2] (setting [16]), the AUC(0-inf) came out at 7.08 ± 0.39 µg·h/mL, the AUC(0-t) was 6.98 ± 0.382 µg·h/mL, the Cmax was found to be 1.79 ± 0.369 µg/mL and the Tmax came to 0.4 ± 0.3 h. Besides, in series [2] (setting [16]), the half-life was 3.81 ± 0.56 h, the CLz/F was 82700 ± 4670 µL/min/mg and the Vz/F is given as 16.99 ± 3.78 L/mg.
